≈ marks a conversion by molar mass, not a printed value. Read-outs that look alike come from different tables or passages of the source.

Details of data set [1]: method as in PMID 25768697. The conditions noted are these: cited from earlier work.
Data set [2] deals with Leishmania aethiopica promastigotes. As to the kind of experiment: In vitro antipromastigote (antileishmanial) assay, AlamarBlue. The format is cell-based. On the procedure: The viability of promastigotes can be estimated by microscopically counting live cells, measuring enzyme activities via the 3-(4,5-dimethyl-thiazol-2-yl)-2,5-diphenyl-tetrazolium bromide (MTT) assay, etc. The frequent use of these methods is hampered due to the lengthy and time-consuming procedures followed in the test. […] The extent of fluorescence produced by each sample is strongly correlated with the number of living cells.
A complete culture medium was prepared from RPMI-1640, 10% HIFCS, 1% penicillin–streptomycin, and 1% L-glutamine for the in vitro antipromastigote assay. The Leishmania aethiopica isolate was grown first on Novy-MacNeal-Nicolle (NNN) medium and then in tissue-culture flasks containing RPMI-1640 medium supplemented with 10% HIFCS and 1% 100 IU penicillin/mL-100 µg/mL streptomycin solution at 22 ℃ [35].
The entire test compound was dissolved in DMSO to a final concentration of 1 mg/mL. The final DMSO concentration was adjusted not to exceed v/v 1% to avoid its inhibitory effect against parasite proliferation or change in morphology. Six different concentrations of test compounds, ranging from 10 µg/mL to 0.04 µg/mL, were prepared by […] serial dilutions. Amphotericin B deoxycholate (with a concentration ranging from 0.5 µg/mL to 0.002 µg/mL) and miltefosine (with a concentration ranging from 40 µg/mL to 0.16 µg/mL) were used as a positive control and DMSO (v/v 1%) in complete media was used as a negative control to compare the antileishmanial activities of test compounds [36]. All the prepared drugs were stored at − 20 ℃ until used in the experiment.
The antileishmanial activity of the test compounds was evaluated in vitro against isolates of Leishmania aethiopica promastigotes. 100 µL of the parasite suspension containing 3 × 10^6 promastigotes per milliliter was added to 96-well plates. The six different concentrations of test compounds and reference drugs were then added in triplicate. DMSO in complete RPMI media was used as a negative control to compare the antileishmanial activities of the test compounds. After 24 h incubation, 20 µL of fluorochrome AlamarBlue® (12.5 mg resazurin dissolved in 100 mL of distilled water) was added to each well. Then, the absorbance of each well was measured after 4 h of incubation at wavelengths of 492 and 630 nm using an ELISA reader for the quantitative determination of viable cells. Finally, the IC50 values were computed from sigmoidal dose–response curves using GraphPad Prism 5.0 software (GraphPad Software, Inc., San Diego, CA, USA).

A short description of data set [3]: In vitro cytotoxicity test. The format is cell-based, African green monkey. The conditions noted are these: African green monkey, VERO cells (African green monkey kidney cells); normal VERO cells, 72 h, formazan OD. As to the method: (§1) The cytotoxicity of compound 13 with promising antileishmanial activity was investigated in vitro against African green monkey kidney cells (VERO cells). In a 96-well plate, VERO cells (1 × 10^5 cells per well) were incubated in triplicates with different concentrations of compound 13 (0–100 µM) for 72 h at 37 ℃ incubator with 95% humidity and 5% CO2 and the cell viability was determined by measuring the optical density (OD) of formazan. […] The CC50 and IC50 values were computed using the formula: Growth inhibition (%) = (ODcontrol-ODtest/ODcontrol)×100 . In addition, the selectivity indices (SI) were computed using the formula SI = CC50/IC50.

In the next data set the test system is VERO cells. As to the kind of experiment: In vitro cytotoxicity test. The conditions noted are these: CC50 VERO cells / IC50 Leishmania aethiopica. In kind it is cell-based, African green monkey. On the procedure:
as §1

Data set [4] has as its system chloroquine-resistant RKL9 strains. The conditions noted are these: read-out: IC50 against chloroquine-resistant RKL9 strains; cited from earlier work.
The subject of data set [5] is Plasmodium berghei ANKA strain. As to the kind of experiment: In vivo antimalarial four-day suppressive test. On the set-up: species or system Swiss albino mice. An excerpt: The four-day suppressive test was implemented to screen the antimalarial activity of the target compounds as it is effective in evaluating early infections and convenient to assess the prodrug effects of test compounds [30]. In this study, the in vivo antimalarial activity of the target compounds was investigated by using mice infected with Plasmodium berghei (achieve steady-state infection) at a dose of 48.4 µmol/kg per day. The results of the antimalarial activity screening of target compounds against the control groups were expressed based on mean parasitemia and percent inhibition of parasitemia (Table 2) which is known as a reliable parameter for in vivo antimalarial screening tests. […] While compounds 9, 10 and 11 containing amidic carbonyl group had less than 50% mean percent suppression compared to the positive control groups. Among the tested compounds, bis-[N,N-dimethylaminomethylene-4-(3-(4-methylphenyl)-4-(hydrazonomethylene)-1H-pyrazole-1-yl)benzenesulfonamide] […] On the other hand, there was an increase in the mean survival time (9.8 ± 1.3) of mice treated with a half dose ([…]) of compound 15, highlighting the potential dose-dependent toxicity associated with bis-structure due to cleavage of acid labile C = N bond and subsequent increase in concentration in the systemic circulation. […] This could be attributed to the presence of a primary amine group adjacent to the C = N bond that can increase the strength of binding interaction with the active site of the receptor by hydrogen bonding. Moreover, the hydrophobic interaction imparted by the methylated phenyl group with the amino acid residues in the enzyme pocket may be beneficial for the observed antimalarial activity of compound 14. The compounds containing C = O bond (9–12) near C = N had relatively lower antimalarial activity due to the electron-withdrawing effect and subsequent decrease in hydrogen bonding interactions with the different functional groups reside in the enzyme pocket.
The in vivo antimalarial activity of the synthesized compounds was determined using the four-day standard suppressive test using Swiss albino mice donated by the Ethiopian Health and Nutrition Institute, Addis Ababa, Ethiopia. Briefly, Swiss albino mice were infected with Plasmodium berghei ANKA strain (0.2 mL of 2 × 10^7 parasitized erythrocytes) through intraperitoneal injection. After 2 h of infection, the mice were weighed and randomly divided into nine groups of five mice per cage. Groups 1–7 received each test compound ([…]) dissolved in a vehicle containing 7% Tween 80, 3% ethanol, and water. Group 8 was treated with chloroquine phosphate (25 mg/kg) suspended in 7% Tween 80, 3% ethanol, and water which served as a positive control. Group 9 received 2 mL/100 g of the negative control (vehicle 7% Tween 80, 3% ethanol, and water). On day four (96 h post-infection), a blood smear was taken from the tail of each mouse, fixed with absolute ethanol, and stained with Giemsa stain. Then, the level of parasitemia was determined microscopically by counting four fields of approximately 100 erythrocytes per field. Finally, the antimalarial effects of control groups and test compounds were expressed in terms of blood parasitemia, percent suppression and mean survival time of mice.
The % suppression and % parasitemia in the antimalarial activity testing were computed using the formulas given below and the resulting data along with the mean survival time was analyzed using Microsoft office excel 2007. The variation in the values of suppressive test was assessed by using one-way analysis of variance (ANOVA) and p < 0.05 is considered as stastically significant.
Parasitemia(%)=Numberofinfectedredbloodcells/Numberoftotalredbloodcells×100
Suppression(%)=Parasitemiaintheuntreatedgroup-Parasitemiainthetreatedgroup/Parasitemiainuntreatedgroup×100

`CCCCCCCCCCCCCCCCOP(=O)([O-])OCC[N+](C)(C)C` [Miltefosine, hexadecylphosphocholine, reference compound]: the “IC50, antileishmanial activities” value in data set [1] is reported as 3.1921 µg/mL (≈ 7.83 µM). Also, the IC50 in data set [2] (Leishmania aethiopica promastigotes, triplicate, 24 h incubation + 4 h AlamarBlue, read-out: IC50 Values (µg/mL), antipromastigote activity) amounted to 3.13 µg/mL; in data set [2] (Leishmania aethiopica promastigotes, molar form of the µg/mL values, read-out: IC50 Values (µM/mL), antipromastigote activity), 7.68 µM; in data set [2] (Leishmania aethiopica, value used for selectivity index, read-out: IC50 (µM) of antileishmanial activity (Table 3)) it was 7.9 µM. In data set [3], the midpoint of cytotoxicity, the CC50 at 72 h, lay at 99.7 µM. In the data set on VERO cells, the “SI (selectivity index, CC50/IC50)” value was 12.63.

Consider `CCN(CC)CCCC(C)Nc1ccnc2cc(Cl)ccc12` (stereo not drawn) [CQ, Chloroquine phosphate, reference compound], for which, in data set [4], the IC50 was 0.192 µM. Also, in data set [5] (P. berghei infected mice, day 4, 48.46 µmol/kg per day (CQ 25 mg/kg), mean ± SD), the “% Parasitemia” value is listed as 0%. Moreover, the inhibition in vivo at 48.46 µmol/kg in data set [5] (Plasmodium berghei, in Mus musculus, 96 h, read-out: % Suppression) was determined as 100%.

(Values after PMC10775556, “Synthesis, antileishmanial, antimalarial evaluation and molecular docking study of some hydrazine-coupled pyrazole derivatives” (BMC Chemistry, 2024).)
